Like-named read-outs stand apart in the source and are kept apart here.
Legend:
[1] = tested on: platelet aggregation stimulated by thrombin (gel-filtered platelets); assay: In vitro inhibition of thrombin-induced gel-filtered platelet aggregation; format: cell-based, Human; settings: agonist thrombin; for IC50: read-out: GFP Aggr. IC50 (μM), Thr; for inhibition at 50 µM: Homo sapiens, Platelet, read-out: GFP Aggr. % Inhibition, Thr
Experimental: (§1) In Vitro Inhibition of Thrombin-Induced Gel-Filtered Platelet Aggregation Assay
(§2) The percentage of platelet aggregation is calculated as an increase in light transmission of compound-treated platelet concentrate vs. control-treated platelet concentrate. Human blood is obtained from drug free, normal donors in tubes containing 0.13 M sodium citrate. Platelet rich plasma (PRP) is collected by centrifugation of whole blood at 200×g for 10 min at 25° C. The PRP (5 mL) is gel filtered through Sepharose 2B (bed volume 50 mL), and the platelet count is adjusted to 2×10^7 platelets per sample. The following constituents are added to a siliconized cuvette: concentrated platelet filtrate and Tyrode's buffer (0.14 M NaCl, 0.0027 M KCl, 0.012 M NaHCO3, 0.76 mM Na2HPO4, 0.0055 M glucose, 2 mg/mL BSA and 5.0 mM HEPES@pH 7.4) in an amount equal to 350 μL, 50 μL of 20 mM calcium and 50 μL of the test compound. Aggregation is monitored in a BIODATA aggregometer for the 3 min following the addition of agonist (thrombin 50 μL of 1 unit/mL).
(§3) Table 5 contains IC50 values (μM) or % inhibition@50 μM of the compounds against platelet aggregation stimulated (GFP Aggr.) by thrombin or TRAP-6 (Thr or TRAP-6) and IC50 values (μM) in a thrombin receptor (PAR-1) binding assay (Binding). The compounds of Table 5 correspond to those shown on Table 4.

[2] = tested on: platelet aggregation stimulated by TRAP-6 (gel-filtered platelets); assay: In vitro inhibition of TRAP-6-induced gel-filtered platelet aggregation; format: cell-based, Human; settings: for IC50: agonist TRAP-6, read-out: GFP Aggr. IC50 (μM), TRAP-6; for inhibition at 50 µM: read-out: GFP Aggr. % Inhibition, TRAP-6
Experimental: as §1, §2, §3

[3] = target: T1, thrombin receptor (PAR-1) (Homo sapiens, UniProt P25116); assay: In vitro thrombin receptor binding assay (CHRF membranes, tritiated 721-40); settings: thrombin receptor (PAR-1) binding, read-out: Binding IC50 (μM), Thr.
T1 construct: CHRF membranes (Jones, Biochim. Biophys. Acta 1992, 1136, 272) are thawed from −70° C; endogenous in cells; the full cell line name is own knowledge
T1 sequence (P25116 22-425): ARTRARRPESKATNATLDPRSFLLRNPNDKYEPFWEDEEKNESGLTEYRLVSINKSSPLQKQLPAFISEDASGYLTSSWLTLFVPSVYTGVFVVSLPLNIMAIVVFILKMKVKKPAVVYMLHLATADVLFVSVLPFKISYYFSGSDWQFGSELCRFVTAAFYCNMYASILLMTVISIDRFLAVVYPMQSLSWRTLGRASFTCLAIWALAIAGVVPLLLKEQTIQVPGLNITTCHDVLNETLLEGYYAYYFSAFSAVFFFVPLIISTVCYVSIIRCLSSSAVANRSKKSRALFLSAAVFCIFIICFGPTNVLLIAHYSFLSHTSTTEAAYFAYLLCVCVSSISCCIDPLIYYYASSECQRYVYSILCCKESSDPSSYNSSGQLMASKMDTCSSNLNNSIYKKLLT
Experimental: In Vitro Thrombin Receptor Binding Assay
CHRF membranes (Jones, Biochim. Biophys. Acta 1992, 1136, 272) are thawed from −70° C., centrifuged at maximum speed for 5 min, washed twice with binding buffer (50 mM HEPES containing 5 mM MgCl2 and 0.1% BSA), and re-suspended in binding buffer (25 μg/[…]). 100 μL of membranes are added to the 24-Wallac plates and delivered to the Tomtech apparatus. In a typical experiment, 6 μL of samples (from a 125 μg/mL intermediary plate, 20% DMSO) and 44 μL buffer are delivered to the plates (final conc. of compounds is 3.7 μg/mL, 0.6% DMSO). Similarly, 6 μL 20% DMSO and 44 μL buffer are delivered to both column 1 (NSB) and column 12 (TB). 10 μL Ser-pFPhe-hArg-Leu-hArg-Lys-Tyr-NH2 (721-40; 500 μM in deionized water) is added to column 1.50 μL tritiated 721-40 (specific activity 46 Ci/mmol) is added to all the wells. The plates are mixed well for 20 seconds, incubated for 30 min, and then harvested with 10 mM HEPES/138 mM NaCl using the Skatron harvester. The filters (GF/C Brandel FPXLR 296) are presoaked 3 h in 0.5% polyethylenimine in HEPES/0.1M N-acetylglucosamine) are set in saran wrap and dried for 3 min in the microwave, and placed in sample bags (Wallac 1450-432). 4.5 mL scintillation fluid (Wallac, Betaplate Scint 1205-440) is added. The bags are sealed, placed in filter cassettes (Wallac 1450-104), and analyzed on the microbeta counter. […]

[4] = Homo sapiens, Platelet, agonist TRAP-6, % inhibition @ 50 μM

Question: Which IC50 [1] does the source give for `CN(C)Cc1cn(Cc2c(Cl)cccc2Cl)c2ccc3nc(N[C@@H](Cc4ccccc4)C(=O)N[C@@H](CCN)C(=O)NCc4ccccc4)nc(N)c3c12` [Compound 2, α-[[1-amino-7-[(2,6-dichlorophenyl)methyl]-9-[(dimethylamino)methyl]-7H-pyrrolo[3,2-f]quinazolin-3-yl]amino]-N-[(1S)-3-amino-1-[[(phenylmethyl)amino]carbonyl]propyl]-(α^1S)-benzenepropanamide] here?
Answer: 13 µM

Question: What about the IC50 [2] of the same compound?
Answer: 3 µM

Question: For `CN(C)Cc1cn(Cc2c(Cl)cccc2Cl)c2ccc3nc(N(C)C)nc(N)c3c12` [Compound 3, 7-[(2,6-dichlorophenyl)methyl]-9-[(dimethylamino)methyl]-N^3,N^3-dimethyl-7H-pyrrolo[3,2-f]quinazoline-1,3-diamine], which inhibition at 50 µM ([1]; % inhibition @ 50 μM) is on record?
Answer: 27%

Question: What about the inhibition at 50 µM [2, 4] of the same compound?
Answer: 40%

Question: Which results are given for `CN(C)Cc1cn(Cc2c(Cl)cccc2Cl)c2ccc3nc(NC4CC4)ncc3c12` [Compound 4, 3-(cyclopropylamino)-7-[(2,6-dichlorophenyl)methyl]-N,N-dimethyl-7H-pyrrolo[3,2-f]quinazoline-9-methanamine]?
Answer: inhibition at 50 µM ([1]; % inhibition @ 50 μM): 30%; inhibition at 50 µM [2, 4]: 20%

Question: For `Nc1nc(Cl)nc2ccc3c(c(CN4CCCC4)cn3Cc3c(Cl)cccc3Cl)c12` [Compound 5, 3-chloro-7-[(2,6-dichlorophenyl)methyl]-9-(1-pyrrolidinylmethyl)-7H-pyrrolo[3,2-f]quinazolin-1-amine], which “GFP Aggr. % Inhibition, Thr” value ([1]; % inhibition @ 50 μM) is on record?
Answer: 16%

Question: And the “GFP Aggr. % Inhibition, TRAP-6” value ([2]; agonist TRAP-6, % inhibition @ 50 μM)?
Answer: 32%

Question: How did the inhibition at 50 µM ([1]; % inhibition @ 50 μM) turn out when `COc1nc(Cl)nc2ccc3c(c(CN(C)C)cn3Cc3c(Cl)cccc3Cl)c12` [Compound 6, 3-chloro-7-[(2,6-dichlorophenyl)methyl]-1-methoxy-N,N-dimethyl-7H-pyrrolo[3,2-f]quinazoline-9-methanamine] was run?
Answer: 40%

Question: And the IC50 ([2]; Homo sapiens, Platelet)?
Answer: 31 µM

Question: What does the source list for `CN(C)Cc1cn(Cc2c(Cl)cccc2Cl)c2ccc3nc(Cl)nc(N)c3c12` [Compound 7, 1-amino-3-chloro-7-[(2,6-dichlorophenyl)methyl]-N,N-dimethyl-7H-pyrrolo[3,2-f]quinazoline-9-methanamine]?
Answer: inhibition at 50 µM ([1]; % inhibition @ 50 μM): 14%; inhibition at 50 µM [2, 4]: 3%

Question: “N^3-cyclopropyl-7-[(2,6-dichlorophenyl)methyl]-9-[(dimethylamino)methyl]-7H-pyrrolo[3,2-f]quinazoline-1,3-diamine [Compound 1]” was tested. Which IC50 [1] did it give?
Answer: 21 µM

Question: What about the IC50 [2] of the same compound?
Answer: 13 µM

Question: And the IC50 [3]?
Answer: 9.6 µM

— US6740657B2, “Aminomethyl-pyrroloquinazoline compounds as thrombin receptor antagonists” (Ortho-McNeil Pharmaceutical, Inc., priority 2001, dated 2004)
